The experiment has as its system human platelets. Briefly: U46619-induced human platelet aggregation ex vivo in platelet rich plasma. The format is cell-based. Conditions: fold less potent than TP20. From the text: A modification of the turbidimetric method originally developed by Born & Cross (Born, G. V. and Cross, M. J., The Aggregation of Blood Platelets, J Physiol, 1963, 168:178-95) is used. The principle is based on the diffraction of the light by particles. When a light beam passes through a suspension of particles, it is diffracted, depending on the number and the size of the particles in suspension.
In the Born & Cross method, a light beam passes through a platelet suspension and the quantity of light is measured by a detector placed after the sample. Upon platelet aggregation, the size of platelet aggregates will increase while the total number of free platelets will decrease. Consequently, less light will be diffracted and the detector will record an increase in light intensity. The aggregometer has been developed based on these concepts. Variations in light transmission recorded by this device reflects the platelet physiology. When an agonist of platelet aggregation is added to a platelet suspension, platelets undergo activation and shape change. […]
Light transmission (T) is measured throughout all the experiment, which is ended 8 minutes after induction of aggregation. Maximal light transmission (Tmax) is determined in the sample without drugs. Minimal light transmission (Tmin) is measured in PRP without inducer. […]

Each structure is given as a SMILES string.

For `COc1ccc(-c2cccc(Oc3ccc(C#N)cc3S(=O)(=O)NC(=O)NC(C)(C)C)c2)cc1` [NTP4, N-(tert-butylcarbamoyl)-5-cyano-2-((4′-methoxy-[1,1′-biphenyl]-3-yl)oxy)benzenesulfonamide], the “Potency relative to TP20, inhibition of U46619-mediated platelet aggregation” value is recorded as “approx. ten-fold”.

Values taken from patent publication US9738599B2, “Thromboxane receptor antagonists” (UNIVERSITY COLLEGE DUBLIN, NATIONAL UNIVERSITY OF IRELAND, …, priority 2012, dated 2017).
